Measured values published in patent publication US11555032B2, “Isoxazole derivatives as FXR agonists and methods of use thereof” (Enanta Pharmaceuticals, Inc., priority 2019, dated 2023).

These compounds were tested against T1, human FXR (NR1H4) (Homo sapiens, UniProt Q96RI1) (assay: Human FXR (NRIH4) Assay, luciferase reporter). Settings: CHO reporter cells expressing human NR1H4, luciferase, 22 hours incubation.
T1 construct: host or cells: CHO (Chinese hamster ovary) reporter cells
T1 sequence (Q96RI1 1-486): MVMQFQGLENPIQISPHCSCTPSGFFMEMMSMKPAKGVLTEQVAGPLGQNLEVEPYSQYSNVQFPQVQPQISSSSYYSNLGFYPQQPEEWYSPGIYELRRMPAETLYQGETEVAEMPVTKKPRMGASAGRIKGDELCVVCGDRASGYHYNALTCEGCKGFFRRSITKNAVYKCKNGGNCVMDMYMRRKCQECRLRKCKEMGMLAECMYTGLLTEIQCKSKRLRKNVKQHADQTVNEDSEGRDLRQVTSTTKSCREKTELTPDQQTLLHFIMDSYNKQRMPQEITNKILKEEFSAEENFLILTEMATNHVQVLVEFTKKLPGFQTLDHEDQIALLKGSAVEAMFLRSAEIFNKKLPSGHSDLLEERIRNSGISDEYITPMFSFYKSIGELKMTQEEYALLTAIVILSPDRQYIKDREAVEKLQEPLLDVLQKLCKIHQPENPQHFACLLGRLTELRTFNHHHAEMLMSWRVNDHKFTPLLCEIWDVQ
Type: cell-based
From the text: Determination of a ligand mediated Gal4 promoter driven transactivation to quantify ligand binding mediated activation of FXR. FXR Reporter Assay kit purchased from Indigo Bioscience (Catalogue number: IB00601) to determine the potency and efficacy of compound developed by Enanta that can induce FXR activation. The principle application of this reporter assay system is to quantify functional activity of human FXR. The assay utilizes non-human mammalian cells, CHO (Chinese hamster ovary) cells engineered to express human NR1H4 protein (referred to as FXR). Reporter cells also incorporate the cDNA encoding beetle luciferase which catalyzes the substrates and yields photon emission. Luminescence intensity of the reaction is quantified using a plate-reading luminometer, Envision. Reporter Cells include the luciferase reporter gene functionally linked to an FXR responsive promoter. Thus, quantifying changes in luciferase expression in the treated reporter cells provides a sensitive surrogate measure of the changes in FXR activity. EC50 and efficacy (normalize to CDCA set as 100%) is determined by XLFit. The assay is according to the manufacturer's instructions. In brief, the assay was performed in white, 96 well plates using final volume of 100 ul containing cells with different doses of compounds. Retrieve Reporter Cells from −80° C. storage. Perform a rapid thaw of the frozen cells by transferring a 10 ml volume of 37° C. cell recovery medium into the tube of frozen cells. Recap the tube of Reporter Cells and immediately place it in a 37° C. water bath for 5-10 minutes. Retrieve the tube of Reporter Cell Suspension from the water bath. Sanitize the outside surface of the tube with a 70% alcohol swab, and then transfer it into the cell culture hood. Dispense 90 μl of cell suspension into each well of the 96-well Assay Plate. Transfer the plate into 37° C. incubator, allowing the cells adherent to the bottom of the well. Dilute compounds in Dilution Plate (DP), and administrate to cells at Assay Plate (AP). DMSO content of the samples was kept at 0.2%. Cells were incubated for additional 22 hours before luciferase activities were measured. Thirty minutes before intending to quantify FXR activity, remove Detection Substrate and Detection Buffer from the refrigerator and place them in a low-light area so that they may equilibrate to room temperature. Remove the plate's lid and discard all media contents by ejecting it into an appropriate waste container. Gently tap the inverted plate onto a clean absorbent paper towel to remove residual droplets. Cells will remain tightly adhered to well bottoms. Add 100 μl of luciferase detection reagent to each well of the assay plate. Allow the assay plate to rest at room temperature for at least 5 minutes following the addition of LDR. Set the instrument (Envision) to perform a single 5 second “plate shake” prior to reading the first assay well. Read time may be 0.5 second (500 mSec) per well. EC50 and Efficacy (normalize to CDCA set as 100%) is determined by XLFit.
The efficacy was normalized to CDCA set as 100%.

Structure (SMILES) | EC50 [nM]
CC(C)Oc1cc(C(=O)O)cc2sc(NC3[C@@H]4CC[C@H]3CC(OCc3c(-c5c(Cl)cccc5Cl)noc3C3CC3)C4)nc12 (stereo partly drawn) [Example 1, 2-(((1R,3r,5S,8s)-3-((5-cyclopropyl-3-(2,6-dichlorophenyl)isoxazol-4-yl)methoxy)bicyclo[3.2.1]octan-8-yl)amino)-4-isopropoxybenzo[d]thiazole-6-carboxylic acid] | < 25
CC(C)Oc1cc(C(=O)O)cc2sc(NC3C4CCC3CC(OCc3c(-c5c(Cl)cccc5Cl)noc3C3CC3)C4)nc12 [Example 2, 2-(((1R,3r,5S,8r)-3-((5-cyclopropyl-3-(2,6-dichlorophenyl)isoxazol-4-yl)methoxy)bicyclo[3.2.1]octan-8-yl)amino)-4-isopropoxybenzo[d]thiazole-6-carboxylic acid] | < 25
O=C(O)c1ccc2c(c1)CN(C1C3CCC1CC(OCc1c(-c4c(Cl)cccc4Cl)noc1C1CC1)C3)C2 (centres unmarked) [Example 2-2] | < 25
CC(C)Oc1cc(C(=O)O)cc2sc(NC3C4CCC3CC(OCc3c(-c5ccccc5OC(F)(F)F)noc3C3CC3)C4)nc12 [Example 3, 2-(((1R,3r,5S,8s)-3-((5-cyclopropyl-3-(2-(trifluoromethoxy)phenyl)isoxazol-4-yl)methoxy)bicyclo[3.2.1]octan-8-yl)amino)-4-isopropoxybenzo[d]thiazole-6-carboxylic acid] | < 25
O=C(O)c1cc(F)c2nc(NC3C4CCC3CC(OCc3c(-c5ccccc5OC(F)(F)F)noc3C3CC3)C4)sc2c1 (centres unmarked) [Example 3-2] | < 25
O=C(O)c1ccnc(NC2C3CCC2CC(OCc2c(-c4ccccc4OC(F)(F)F)noc2C2CC2)C3)c1 (centres unmarked) [Example 3-3] | 25 to 500
O=C(O)c1cccc2nc(NC3C4CCC3CC(OCc3c(-c5ccccc5OC(F)(F)F)noc3C3CC3)C4)ccc12 (centres unmarked) [Example 3-4] | < 25
O=C(O)c1cnc(NC2C3CCC2CC(OCc2c(-c4ccccc4OC(F)(F)F)noc2C2CC2)C3)c(C(F)(F)F)c1 (centres unmarked) [Example 3-5] | 25 to 500
O=C(O)c1ccc2nc(NC3C4CCC3CC(OCc3c(-c5ccccc5OC(F)(F)F)noc3C3CC3)C4)ccc2c1 (centres unmarked) [Example 3-6] | < 25
O=C(O)c1cccc2nc(NC3C4CCC3CC(OCc3c(-c5ccccc5OC(F)(F)F)noc3C3CC3)C4)cnc12 (centres unmarked) [Example 3-7] | < 25
O=C(O)c1cc2sc(NC3C4CCC3CC(OCc3c(-c5ccccc5OC(F)(F)F)noc3C3CC3)C4)nc2c(F)c1F (centres unmarked) [Example 3-9] | < 25
O=C(O)c1ccc2nc(NC3C4CCC3CC(OCc3c(-c5ccccc5OC(F)(F)F)noc3C3CC3)C4)ncc2c1 (centres unmarked) [Example 3-12] | < 25
O=C(O)c1cccc2nc(NC3C4CCC3CC(OCc3c(-c5ccccc5OC(F)(F)F)noc3C3CC3)C4)ncc12 (centres unmarked) [Example 3-13] | < 25
CC(C)Oc1cc(C(=O)O)cc2sc(N[C@H]3C[C@@H]4C[C@H]3C[C@@H]4OCc3c(-c4c(Cl)cccc4Cl)noc3C3CC3)nc12 [Example 4, 2-(((1S,2S,4S,5S)-5-((5-cyclopropyl-3-(2,6-dichlorophenyl)isoxazol-4-yl)methoxy)bicyclo[2.2.1]heptan-2-yl)amino)-4-isopropoxybenzo[d]thiazole-6-carboxylic acid] | < 25
CC(C)Oc1cc(C(=O)O)cc2sc(N[C@H]3C[C@@H]4C[C@H]3C[C@@H]4OCc3c(-c4ccccc4OC(F)(F)F)noc3C3CC3)nc12 [Example 5] | 25 to 500
CC(C)Oc1cc(C(=O)O)cc2sc(N[C@@H]3C[C@@H]4C[C@H]3C[C@@H]4OCc3c(-c4ccccc4OC(F)(F)F)noc3C3CC3)nc12 [Example 6] | 25 to 500
CC(C)Oc1cc(C(=O)O)cc2sc(N[C@@H]3C[C@H]4C[C@@H]3[C@@H](OCc3c(-c5c(Cl)cccc5Cl)noc3C3CC3)C4)nc12 [Example 7] | < 25
NS(=O)(=O)c1ccc2nc(NC3C4CCC3CC(OCc3c(-c5ccccc5OC(F)(F)F)noc3C3CC3)C4)sc2c1 [Example 8, 2-(((1R,3r,5S,8s)-3-((5-cyclopropyl-3-(2-(trifluoromethoxy)phenyl)isoxazol-4-yl)methoxy)bicyclo[3.2.1]octan-8-yl)amino)benzo[d]thiazole-6-sulfonamide] | 25 to 500

Structure (SMILES) | EC50 [nM]
NS(=O)(=O)c1ccc2nc(NC3C4CCC3CC(OCc3c(-c5ccccc5OC(F)(F)F)noc3C3CC3)C4)cnc2c1 (centres unmarked) [Example 8-2] | 25 to 500
NS(=O)(=O)c1ccc(NC2C3CCC2CC(OCc2c(-c4ccccc4OC(F)(F)F)noc2C2CC2)C3)nc1 (centres unmarked) [Example 8-3] | 25 to 500
N#Cc1ccc(NC2C3CCC2CC(OCc2c(-c4ccccc4OC(F)(F)F)noc2C2CC2)C3)nc1 [Example 8-4, 6-(((1R,3r,5S,8s)-3-((5-cyclopropyl-3-(2-(trifluoromethoxy)phenyl)isoxazol-4-yl)methoxy)bicyclo[3.2.1]octan-8-yl)amino)nicotinonitrile] | 25 to 500
FC(F)(F)Oc1ccccc1-c1noc(C2CC2)c1COC1CC2CCC(C1)C2Nc1ccc(-c2nnn[nH]2)cn1 [Example 8-5, N-((1R,3r,5S,8s)-3-((5-cyclopropyl-3-(2-(trifluoromethoxy)phenyl)isoxazol-4-yl)methoxy)bicyclo[3.2.1]octan-8-yl)-5-(1H-tetrazol-5-yl)pyridin-2-amine] | 25 to 500
FC(F)(F)Oc1ccccc1-c1noc(C2CC2)c1COC1CC2CCC(C1)C2Nc1nc2ccc(C(F)(F)F)cc2s1 (centres unmarked) [Example 8-6] | 25 to 500
FC(F)(F)Oc1ccccc1-c1noc(C2CC2)c1COC1CC2CCC(C1)C2Nc1ncc(-c2ccccc2)cn1 [Example 8-7, N-((1R,3r,5S,8s)-3-((5-cyclopropyl-3-(2-(trifluoromethoxy)phenyl)isoxazol-4-yl)methoxy)bicyclo[3.2.1]octan-8-yl)-5-phenylpyrimidin-2-amine] | > 500
FC(F)(F)Oc1ccccc1-c1noc(C2CC2)c1COC1CC2CCC(C1)C2Nc1nccc(-c2ccccc2)n1 (centres unmarked) [Example 8-8] | > 500
O=C(O)c1ccc2c(S(=O)(=O)NC3C4CCC3CC(OCc3c(-c5ccccc5OC(F)(F)F)noc3C3CC3)C4)cccc2c1 [Example 9, 5-(N-((1R,3r,5S,8s)-3-((5-cyclopropyl-3-(2-(trifluoromethoxy)phenyl)isoxazol-4-yl)methoxy)bicyclo[3.2.1]octan-8-yl)sulfamoyl)-2-naphthoic acid] | < 25
COC(=O)c1ccc(S(=O)(=O)NC2C3CCC2CC(OCc2c(-c4ccccc4OC(F)(F)F)noc2C2CC2)C3)c2ccccc12 (centres unmarked) [Example 9-2] | < 25
O=C(O)c1ccc(S(=O)(=O)NC2C3CCC2CC(OCc2c(-c4ccccc4OC(F)(F)F)noc2C2CC2)C3)c2ccccc12 (centres unmarked) [Example 9-3] | 25 to 500
COC(=O)c1cccc2c(S(=O)(=O)NC3C4CCC3CC(OCc3c(-c5ccccc5OC(F)(F)F)noc3C3CC3)C4)cccc12 (centres unmarked) [Example 9-4] | 25 to 500
O=C(O)c1cccc2c(S(=O)(=O)NC3C4CCC3CC(OCc3c(-c5ccccc5OC(F)(F)F)noc3C3CC3)C4)cccc12 (centres unmarked) [Example 9-5] | < 25
COC(=O)c1ccc2cc(S(=O)(=O)NC3C4CCC3CC(OCc3c(-c5ccccc5OC(F)(F)F)noc3C3CC3)C4)ccc2c1 (centres unmarked) [Example 9-6] | < 25
O=C(O)c1ccc2cc(S(=O)(=O)NC3C4CCC3CC(OCc3c(-c5ccccc5OC(F)(F)F)noc3C3CC3)C4)ccc2c1 (centres unmarked) [Example 9-7] | 25 to 500
O=C(O)c1cccc(S(=O)(=O)NC2C3CCC2CC(OCc2c(-c4ccccc4OC(F)(F)F)noc2C2CC2)C3)c1 (centres unmarked) [Example 9-8] | > 500
O=C(O)c1ccccc1S(=O)(=O)NC1C2CCC1CC(OCc1c(-c3ccccc3OC(F)(F)F)noc1C1CC1)C2 (centres unmarked) [Example 9-9] | > 500
O=S(=O)(NC1C2CCC1CC(OCc1c(-c3ccccc3OC(F)(F)F)noc1C1CC1)C2)c1ccccc1 (centres unmarked) [Example 9-10] | 25 to 500
